Laboratory results published in article PMC5978685, “Design, Synthesis, and Evaluation of Novel Immunomodulatory Small Molecules Targeting the CD40–CD154 Costimulatory Protein-Protein Interaction” (Molecules : A Journal of Synthetic Chemistry and Natural …, 2018).
pIC50: −log10 of the molar value. “Also recorded” adds a separate entry of the source.

How the values were obtained:
[1] = tested on: alloantigen-induced T cell response in draining popliteal lymph node; test: alloantigen-induced T cell expansion in draining lymph node; assay type: in vivo, mouse (Balb/c); conditions: Balb/c mice, DBA-2 splenocytes in footpad; 10–20 mg/kg s.c. b.i.d.; p < 0.0001 vs vehicle
Procedure: The most promising compounds of the present series were evaluated for in vivo activity using the same model of alloantigen-induced T cell expansion in the draining lymph nodes (DLNs) that was described before. This procedure involved injection of splenocytes isolated from DBA-2 mice into the footpad of Balb/c recipients. Within three full days, this causes a significant increase in the number of cells in the draining popliteal lymph node, and this is inhibited by compounds with immunosuppressive activity.
The ability to inhibit alloantigen-induced T cell response in a draining lymph node was tested as described before. In brief, BALB/c mice (10–12 weeks old, female) received a footpad injection of 1 × 10^7 splenocytes isolated from DBA-2 mice (10–12 weeks old, male). CD154 antibody (MR-1; 20 mg/kg, day −1 and 0) or test compounds (20–60 mg/kg; b.i.d. from day −1 to 3, in 20% HPβCD) were administered s.c., and the draining popliteal lymph nodes (DLNs) were collected 3 days after the alloantigen challenge. DLN cells were counted and data are shown as mean ± SD (n = 3–4 per group).
(§1) All binding inhibition and cell assays were tested in duplicate or triplicate per plates, and assays were performed as at least three independent experiments. As before, binding and cytotoxicity data were converted to percent inhibition and fitted with standard log inhibitor vs. normalized response models using nonlinear regression in GraphPad Prism (GraphPad, La Jolla, CA, USA) to establish half-maximal (median) inhibitory concentration (IC50) or median lethal concentration (LC50) values. Cell assay data were fitted with a similar model that also allowed for a variable slope using the log inhibitor vs. normalized response (variable slope) model from Prism with a Hill slope (n) shared across all compounds. Cell assays and draining lymph node data were analyzed by one-way repeated-measures analysis of variance (ANOVA) followed by Dunnett’s multiple comparison test as a post hoc test for individual differences using GraphPad Prism and a significance level of p < 0.05 for all comparisons.
Figure 6 Inhibition of alloantigen-induced T cell response in a draining lymph node by compounds 6, 15, 18, and 19. Mice (Balb/c) received a footpad injection of allogeneic splenocytes (isolated from DBA-2 mice) and were treated with anti-CD154 antibody (MR-1; 20 mg/kg, day −1 and 0) or compounds as shown (10–40 mg/kg, b.i.d. from day −1 to 3, s.c. in 20% HPβCD). Draining (popliteal) lymph nodes were collected three days after the alloantigen challenge and cells were counted. Data are shown as mean ± SD. Significant differences compared to vehicle-treated controls are indicated by asterisks (**** p < 0.0001; one-way ANOVA followed by Dunnett’s multiple comparison test).

[2] = tested on: CD154-induced NF-κB activation in CD40 sensor cells; test: CD40 sensor cell assay (HEK Blue CD40, SEAP reporter); assay type: cell-based, human; conditions: for pIC50: Homo sapiens, CD154 100 ng/mL, 24 h
Excerpt: As further confirmation of the inhibitory activity of our compounds, a cell-based assay was used with sensor cells (HEK Blue CD40) containing a secreted embryonic alkaline phosphatase (SEAP) reporter gene under the control of a promoter fused to a NF-κB binding site and transfected with CD40. […] For all tested compounds, the corresponding IC50 values are higher than those determined in the cell-free binding inhibition assay (Table 1) representing a loss of activity which is likely due to non-specific binding on account of the presence of proteins and cells in the assay, as well as hydrophobicity-related problems. Cytotoxicities were also evaluated in these same cells and at the same concentrations using a standard MTS assay to ensure that effects are present at non-toxic concentration levels.
CD40 expressing NF-κB sensor cells (HEK Blue, InvivoGen, San Diego, CA, USA) were used to assess the ability of the present compounds to block CD154-induced activation as described before. Briefly, cells were maintained in DMEM at 80% confluence for each experiment. Cells were trypsinized and re-suspended in the same medium without FBS and seeded on 96-well microtiter plates at a density of 50,000 cells/well in the absence and presence of various concentrations of compounds diluted in the same media. For ligand mediated stimulation, a concentration of recombinant human CD154 (100 ng/mL) found to induce an optimal response was maintained in the wells for this purpose. After 24 h of incubation at 37 °C, 40 μL supernatant of each well were taken and added to another 96-well microtiter plate containing 160 μL/well of QUANTI-Blue (InvivoGen). The level of SEAP was determined after 1 h of incubation at 37 °C by reading at 650 nm using a spectrophotometer. A monoclonal anti-human CD154 antibody (clone 40804, R&D Systems, Minneapolis, MN, USA) was used as a positive control at 240 nM concentration.
as §1
Figure 5 Inhibition of CD154-induced NF-κB activation in CD40 sensor cells by compounds 6, 14, 15, and 18 in a concentration-dependent manner. Tartrazine (TZ) and an anti-CD154 antibody (mAb; single dose, 240 nM) were included as negative and positive controls, respectively. Data are average ± SD (normalized to CD154-activated cells alone) for n = 2 independent experiments with duplicates for each condition.

O=C(Nc1ccc(-c2ccc(C(=O)Nc3cccc4cccc(S(=O)(=O)O)c34)cc2)cc1)c1ccc([N+](=O)[O-])cc1 [Compound 6, 8-(4′-(4-Nitrobenzamido)biphenyl-4-ylcarboxamido)naphthalene-1-sulfonic acid]
inhibition of alloantigen-induced T cell expansion in draining lymph node [1]: highly significant inhibitory activity; also recorded: inhibited the alloantigen-induced T cell response in this model in statistically significant manner | inhibition of CD154-induced NF-κB activation (qualitative) [2]: concentration-dependent inhibition | pIC50 [2]: 4.70

COC(=O)c1ccc(-c2ccc(C(=O)Nc3ccc(-c4ccc(C(=O)Nc5cccc6cccc(S(=O)(=O)O)c56)cc4)cc3)cc2)cc1 [Compound 15, 8-(4′-(4′-(Methoxycarbonyl)-[1,1′-biphenyl]-4-carboxamido)-[1,1′-biphenyl]-4-carboxamido)naphthalene-1-sulfonic acid]
inhibition of alloantigen-induced T cell expansion in draining lymph node [1]: highly significant inhibitory activity; also recorded: inhibited the alloantigen-induced T cell response in this model in statistically significant manner | inhibition of CD154-induced NF-κB activation (qualitative) [2]: concentration-dependent inhibition | pIC50 [2]: 5.22

O=C(Nc1ccc(-c2ccc(C(=O)Nc3cccc4cccc(S(=O)(=O)O)c34)cc2)nc1)c1ccc([N+](=O)[O-])cc1 [Compound 18, 8-(4-(5-(4-Nitrobenzamido)pyridin-2-yl)benzamido)naphthalene-1-sulfonic acid]
inhibition of alloantigen-induced T cell expansion in draining lymph node [1]: highly significant inhibitory activity; also recorded: inhibited the alloantigen-induced T cell response in this model in statistically significant manner | inhibition of CD154-induced NF-κB activation (qualitative) [2]: concentration-dependent inhibition | pIC50 [2]: 5.06
